Patent US20230054767A1, “COMBINATIONS” (Recurium IP Holdings, LLC, priority 2019, published 2023)

How the values were obtained:
Type in all cases: in vivo
MCF-7 cells [1] = assay: Example 1: MCF-7 xenograft tumor model, Compound A and Compound 5; conditions: BALB/c nude mice, orally once a day for 21 days, Compound A 10 mg/kg, Compound 5 200 mg/kg, alone or combined
Method: Example 1: MCF-7 cells were grown in DMEM Medium supplemented with 15% heat inactivated fetal bovine serum at 37° C. in an atmosphere of 5% CO2 in air. BALB/c nude mice were implanted subcutaneously on the 2nd right mammary fat pad with a single cell suspension of 95% viable tumor cells (1.5×10^7) in 200 μL DMEM Matrigel mixture (1:1 ratio) without serum. When tumors reached approximately 172 mm^3, animals were randomly distributed into treatment groups of 10 animals each and dosed orally, once a day for 21 days as follows: vehicle at the same volume as the single agent treatment; Compound A (alternatively referred to as “Compound (A)” in the specification and figures) at 10 mg/kg; Compound 5 at 200 mg/kg; and the combination treatment of Compound A 10 mg/kg) and Compound 5 (200 mg/kg). In addition, estradiol benzoate injections were given subcutaneously (40 μg/ 20 μL, twice weekly) to all treatment groups. Tumor volumes were evaluated twice per week to calculate tumor volume over time, and mice were weighed twice per week as a surrogate for signs of toxicity. Tumor growth inhibition (TGI) was calculated using the following equation TGI=(1−(Td−T0)/(Cd−C0))×100%. […] The percent tumor regression was calculated using the formula: (1−(Td/T0))×100%.

MCF-7 cells [2] = assay: Example 2: MCF-7 xenograft tumor model, Compound A (5 mg/kg) and Compound 5; conditions: BALB/c nude mice, orally once a day for 24 days, Compound 5 200 mg/kg, alone or combined
Method: (§1) Example 1: MCF-7 cells were grown in DMEM Medium supplemented with 15% heat inactivated fetal bovine serum at 37° C. in an atmosphere of 5% CO2 in air. BALB/c nude mice were implanted subcutaneously on the 2nd right mammary fat pad with a single cell suspension of 95% viable tumor cells (1.5×10^7) in 200 μL DMEM Matrigel mixture (1:1 ratio) without serum. […] Tumor volumes were evaluated twice per week to calculate tumor volume over time, and mice were weighed twice per week as a surrogate for signs of toxicity. […] The percent tumor regression was calculated using the formula: (1−(Td/T0))×100%.
Example 2: MCF-7 cells were grown in DMEM Medium supplemented with 15% heat inactivated fetal bovine serum at 37° C. in an atmosphere of 5% CO2 in air. […] Tumor volumes were evaluated twice per week to calculate tumor volume over time, and mice were weighed twice per week as a surrogate for signs of toxicity. TGI and Tumor regression values were calculated using the equations provided in Example 1. […]

MCF-7 cells [3] = assay: Example 3: MCF-7 xenograft tumor model, Compound A and Compound 6; conditions: BALB/c nude mice, orally once a day for 28 days, Compound A 10 mg/kg, Compound 6 50 mg/kg, alone or combined
Method: as §1
Example 3: MCF-7 cells were grown in DMEM Medium supplemented with 15% heat inactivated fetal bovine serum at 37° C. in an atmosphere of 5% CO2 in air. […] Tumor volumes were evaluated twice per week to calculate tumor volume over time, and mice were weighed twice per week as a surrogate for signs of toxicity. TGI and Tumor regression values were calculated using the equations provided in Example 1.

C[C@@H]1Cc2c([nH]c3ccccc23)[C@@H](c2c(F)cc(/C=C/C(=O)O)cc2F)N1C12CC(C1)C2 [Compound A]
TUMOR REGRESSION % (DAY 21) (MCF-7 cells [1]): 0%
TGI % (DAY 21) (MCF-7 cells [1]; estradiol benzoate s.c.): 81%
TUMOR REGRESSION % (DAY 24) (MCF-7 cells [2]): 8%
TGI % (DAY 24) (MCF-7 cells [2]; estradiol benzoate s.c.): 108%
TUMOR REGRESSION % (DAY 29) (MCF-7 cells [3]): 33%
TGI % (DAY 29) (MCF-7 cells [3]; estradiol benzoate s.c.): 120%
